Earlier results, collected in US20140271465A1, “MATRIX METALLOPROTEASE (MMP) TARGETED AGENTS FOR IMAGING AND THERAPY” (Mallinckrodt LLC, priority 2013, published 2014).

How the values were obtained:
rhMMP14 = molecular target: T1, rhMMP14 (Homo sapiens, UniProt P50281); conditions: control compound, vendor description
T1 construct: purchased R&D Systems 918-MP

rhMMP2 = molecular target: T2, rhMMP2 (Homo sapiens, UniProt P08253); conditions: control compound, vendor description
T2 construct: purchased R&D Systems 902-MP
T2 sequence (P08253 110-660): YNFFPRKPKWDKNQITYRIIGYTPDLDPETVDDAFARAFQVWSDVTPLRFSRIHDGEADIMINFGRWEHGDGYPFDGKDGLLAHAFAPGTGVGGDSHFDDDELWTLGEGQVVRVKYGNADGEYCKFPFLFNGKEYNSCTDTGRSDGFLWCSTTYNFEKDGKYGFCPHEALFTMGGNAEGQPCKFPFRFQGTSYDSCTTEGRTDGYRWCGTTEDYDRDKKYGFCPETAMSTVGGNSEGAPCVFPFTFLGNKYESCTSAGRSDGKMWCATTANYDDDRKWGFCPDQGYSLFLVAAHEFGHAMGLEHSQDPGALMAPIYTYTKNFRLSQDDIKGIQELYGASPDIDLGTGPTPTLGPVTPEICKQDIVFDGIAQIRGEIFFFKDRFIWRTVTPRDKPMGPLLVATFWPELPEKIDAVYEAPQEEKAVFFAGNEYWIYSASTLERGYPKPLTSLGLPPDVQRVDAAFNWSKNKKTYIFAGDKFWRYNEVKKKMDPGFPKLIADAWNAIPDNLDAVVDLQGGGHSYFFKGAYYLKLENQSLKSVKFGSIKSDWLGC

Inhibition of MMP-14 (control description) (rhMMP14)	Inhibition of MMP-2 (control description) (rhMMP2)	Structure (SMILES)
poor inhibitor for MMP-14	selective MMP-2 inhibitor	CC(C)ON(CC(=O)NO)S(=O)(=O)c1ccc(-c2ccccc2)cc1 [ARP100]
low nM levels	low nM levels	CNC(=O)[C@H](Cc1ccccc1)NC(=O)[C@H](CC(C)C)[C@H](CSc1cccs1)C(=O)NO [Batimastat]
